One data set has as its target T1, IL-23R (Homo sapiens, UniProt Q5VWK5).
T1 construct: host or cells: HEK293
T1 sequence (Q5VWK5 24-629): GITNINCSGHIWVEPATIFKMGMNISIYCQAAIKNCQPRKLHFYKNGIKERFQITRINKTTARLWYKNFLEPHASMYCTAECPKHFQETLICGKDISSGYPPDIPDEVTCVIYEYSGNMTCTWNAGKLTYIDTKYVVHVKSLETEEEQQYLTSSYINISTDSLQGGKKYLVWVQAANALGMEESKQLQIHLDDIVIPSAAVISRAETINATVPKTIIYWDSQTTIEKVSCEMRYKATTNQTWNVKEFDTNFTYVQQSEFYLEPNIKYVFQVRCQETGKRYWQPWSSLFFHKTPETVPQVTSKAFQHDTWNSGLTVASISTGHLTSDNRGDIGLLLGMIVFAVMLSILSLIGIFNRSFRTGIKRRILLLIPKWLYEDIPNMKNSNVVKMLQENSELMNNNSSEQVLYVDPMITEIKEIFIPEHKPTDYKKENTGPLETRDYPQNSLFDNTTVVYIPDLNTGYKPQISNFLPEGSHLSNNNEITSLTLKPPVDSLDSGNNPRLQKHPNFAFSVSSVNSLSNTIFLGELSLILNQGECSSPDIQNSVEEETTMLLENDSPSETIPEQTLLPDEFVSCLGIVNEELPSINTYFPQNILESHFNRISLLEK
The experiment in a line: IL23R Reporter Assay. Conditions: HEK293 cells containing IL-23R, IL-12RP1 and STAT-inducible firefly luciferase reporter; 10 ng/mL IL-23 (EC90); 5 h at 37° C.; read-out: IL23R Reporter Assay. Format: cell-based. For orientation: Reporter assays use an easily measured gene product as a stand-in for the process of interest.

Data set [1] in a line: Exposed Polar Surface Area (EPSA). Format: physicochemical. Conditions: SFC on Chirex 3014 column; sample 1 mM DMSO stock; read-out: EPSA. The gist of the method:
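SFC retention on a Chirex 3014 (S)-valine/(R)-1-(α-naphthyl)ethylamine column, 35 °C, CO2 with MeOH (20 mM ammonium formate) gradient 5–60% at 20%/min, 14 MPa outlet. Retention times converted to EPSA (Å^2) via linear calibration with 8 standards; samples from 1 mM DMSO stock, run in duplicate.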

Each structure is given as a SMILES string. Starred links: 1 amine or outer side, 2 acyl side, 3 side chain; linkers in the order of their positions; H or OH if unused. Positions of bridges follow the written chain, without caps; N, C: chain ends. Non-standard residues stand in square brackets, D forms with d. Residues, ends and D or L forms follow the SMILES beside them. Groups on a side chain read outwards from the residue. *: point of attachment. Me3N+(CH2)2O(CH2)2O(CH2)2CO = C[N+](C)(C)CCOCCOCCC(=O)*; CH2CH2OCH2CH2OCH2CH2NMe3+ = C[N+](C)(C)CCOCCOCC*; Trp(7-Me) = Cc1cccc2c(C[C@H](N)C(=O)O)c[nH]c12; Lys(Me3) = C[N+](C)(C)CCCC[C@H](N)C(=O)O; Dab(NMeAc) = CC(=O)N(C)CC[C@H](N)C(=O)O; 2Nal = N[C@@H](Cc1ccc2ccccc2c1)C(=O)O; X19 = C[N+](C)(C)C[C@@H](CC(=O)O)N*; 3Pal = N[C@@H](Cc1cccnc1)C(=O)O; Lys(Me) = CNCCCC[C@H](N)C(=O)O; Pen = CC(C)(S)[C@H](N)C(=O)O; Suc = O=C(CCC(=O)[*:2])[*:1]; X4 = COCCOCCCN(CCCOCCOC)CC*; Thp = NC1(C(=O)O)CCOCC1; X3 = C[N+](C)(C)CCCCC*; Sar = CNCC(=O)O

Take `CC(=O)N(C)CCCC[C@@H]1NC(=O)[C@H](Cc2c[nH]c3c(C)cccc23)NC(=O)[C@H]([C@@H](C)O)NC(=O)[C@H](CCCC[N+](C)(C)C)NC(=O)[C@@H](NC(=O)CCOCCOCC[N+](C)(C)C)C(C)(C)SSC(C)(C)[C@@H](C(=O)N[C@@H](Cc2ccc(OCCCCC[N+](C)(C)C)cc2)C(=O)N[C@@H](Cc2ccc3ccccc3c2)C(=O)NC2(C(=O)N[C@@H](CCCCN(C)C(C)=O)C(=O)N[C@@H](CC(N)=O)C(=O)N[C@@H](Cc3cccnc3)C(=O)N(C)CC(=O)N(C)C)CCOCC2)NC1=O` [compound 328, cPEG3aCO-Pen(3)-K(Me)3-T-7MeW-K(NMeAc)-Pen(3)-TMAPF-2Nal-THP-K(NMeAc)-N-3Pya-Sar-CON(Me)2] ({Me3N+(CH2)2O(CH2)2O(CH2)2CO}-[Pen][Lys(Me3)]T[Trp(7-Me)][Lys(Me)](Ac)[Pen]Y(X3)[2Nal][Thp][Lys(Me)](Ac)N[3Pal][Sar]-NMe2; disulfide 1-6): at IL-23R, the IC50 came out at 1.2 nM. In addition, the EPSA in data set [1] stood at 159 A^2.
For `COCCOCCCN(CCCOCCOC)CCOc1ccc(C[C@H](NC(=O)[C@H]2NC(=O)[C@H](CCCCN(C)C(C)=O)NC(=O)[C@H](Cc3c[nH]c4c(C)cccc34)NC(=O)[C@H]([C@@H](C)O)NC(=O)[C@H](CC(=O)N(C)C)NC(=O)[C@@H](NC(=O)CCOCCOCC[N+](C)(C)C)C(C)(C)SSC2(C)C)C(=O)N[C@@H](Cc2ccc3ccccc3c2)C(=O)NC2(C(=O)N[C@@H](CCCCN(C)C(C)=O)C(=O)N[C@@H](CC(N)=O)C(=O)N[C@@H](Cc3cccnc3)C(=O)N(C)CC(=O)N(C)C)CCOCC2)cc1` [compound 203, cPEG3aCO-Pen(3)-N(N(Me)2)-T-7MeW-K(NMeAc)-Pen(3)-AEF(BisMEP))-2Nal-THP-K(NMeAc)-N-3Pya-Sar-CON(Me)2] ({Me3N+(CH2)2O(CH2)2O(CH2)2CO}-[Pen]D(NMe2)T[Trp(7-Me)][Lys(Me)](Ac)[Pen]Y(X4)[2Nal][Thp][Lys(Me)](Ac)N[3Pal][Sar]-NMe2; disulfide 1-6) the same measures were 1.6 nM and 135 A^2.
For `CC(=O)NCCCC[C@@H]1NC(=O)[C@H](Cc2c[nH]c3c(-c4cccc(NC(C)=O)c4)cccc23)NC(=O)[C@H]([C@@H](C)O)NC(=O)[C@H](CC(N)=O)NC(=O)[C@@H](NC(=O)CCOCCOCC[N+](C)(C)C)C(C)(C)SSC(C)(C)[C@@H](C(=O)N[C@@H](Cc2ccc(OCCNC(=N)N)cc2)C(=O)N[C@@H](Cc2ccc3ccccc3c2)C(=O)NC2(C(=O)N[C@@H](CCCCN(C)C(C)=O)C(=O)N[C@@H](CC(N)=O)C(=O)N[C@@H](Cc3cncc(C)c3)C(=O)N(C)CC(N)=O)CCOCC2)NC1=O` [compound 519, cPEG3aCO-Pen(3)-N-T-7(3NAcPh)W-K(Ac)-Pen(3)-AEF(G)-2Nal-THP-K(NMeAc)-N-3Pya-Sar-CONH2], the IC50 on IL-23R turned out to be 1.8 nM. For the same compound, in data set [1], the EPSA was determined as 186 A^2.
For `CC(=O)N[C@H](CCCCNC(=O)CCC(=O)N[C@H](CC(=O)O)C[N+](C)(C)C)C(=O)N[C@@H]1C(=O)N[C@@H](CC(=O)N(C)C)C(=O)N[C@@H]([C@@H](C)O)C(=O)N[C@@H](Cc2c[nH]c3c(C)cccc23)C(=O)N[C@@H](CCCCN(C)C(C)=O)C(=O)N[C@H](C(=O)N[C@@H](Cc2ccc(OCCOCCOCC[N+](C)(C)C)cc2)C(=O)N[C@@H](Cc2ccc3ccccc3c2)C(=O)NC2(C(=O)N[C@@H](CCN(C)C(C)=O)C(=O)N[C@@H](CC(N)=O)C(=O)N[C@@H](Cc3cccnc3)C(=O)N(C)CC(=O)N(C)C)CCOCC2)C(C)(C)SSC1(C)C` [compound 213, MeCO-k(d)-Pen(3)-N(N(Me)2)-T-7MeW-K(NMeAc)-Pen(3)-APEG3F-2Nal-THP-Dab(NMeAc)-N-3Pya-Sar-CON(Me)2] (Ac-[dK]([Suc-X19])[Pen]D(NMe2)T[Trp(7-Me)][Lys(Me)](Ac)[Pen]Y(CH2CH2OCH2CH2OCH2CH2NMe3+)[2Nal][Thp][Dab(NMeAc)]N[3Pal][Sar]-NMe2; disulfide 2-7) the same measures were 5.1 nM and 154 A^2.

The values are drawn from US20260022143A1, “Cyclic Peptide Inhibitors of IL-23” (JANSSEN PHARMACEUTICA NV, priority 2022, published 2026).
